{
  "source": "ChEMBL document CHEMBL1141841",
  "about": "“Biotransformation of the trichoderma metabolite 6-n-pentyl-2H-pyran-2-one (6PAP) by selected fungal isolates” (J Nat Prod, 1999)",
  "note": "Active and inactive are the calls of the source. The calls are words filed in the database; no cut-off is given here.",
  "data": [
    {"system": "Botrytis cinerea", "assay": "Antimicrobial activity against Botrytis cinerea by spore germination assay", "assay_type": "functional, organism-based", "values": [
      {"compound": "O=c1cccc(CCCCCO)o1", "Activity": "inactive"},
      {"compound": "CC(O)CCCc1cccc(=O)o1", "note": "(stereo not given)", "Activity": "inactive"},
      {"compound": "O=C(O)CCc1cccc(=O)o1", "Activity": "inactive"},
      {"compound": "O=C(O)CCCCc1cccc(=O)o1", "Activity": "inactive"},
      {"compound": "CCCCCc1cccc(=O)o1", "Activity": "Active"}
    ]}
  ]
}
